According to US20240408086A1, “USE OF LUVADAXISTAT FOR THE TREATMENT OF COGNITIVE IMPAIRMENT” (TAKEDA PHARMACEUTICAL COMPANY LIMITED, priority 2021, published 2024):

Test system: adult patients with persistent negative symptoms of schizophrenia
Format: in vivo, human
Description: To assess changes in cognitive impairment associated with schizophrenia (CIAS), secondary endpoints included the 12-week change from baseline in the Brief Assessment of Cognition in Schizophrenia (BACS) composite score, a measure of cognition across multiple domains, and the Schizophrenia Cognition Rating Scale (SCORS) score, a measure of day-to-day cognitive functioning requiring input from an adult informant. Secondary endpoints were not corrected for multiplicity.
The BACS is specifically designed to measure treatment-related improvements in cognition and includes alternate forms. BACS is a reliable and sensitive measure of cognitive function in schizophrenia. The BACS is a cognition assessment battery that assesses 6 domains of cognitive function found to be consistently impaired in schizophrenia: verbal memory; working memory; motor speed; attention; executive functions; and verbal fluency. The primary measure from each test of the BACS is standardized by creating T-scores whereby the mean of the test session of a matched reference healthy participant is set to 50 and the standard deviation set to 10.

[1] = 500 mg once daily, preliminary analysis

Structure (SMILES): O=c1[nH]nc(CCc2ccc(C(F)(F)F)cc2)cc1O [Compound (I), luvadaxistat]
- BACS Composite Score, Week 6, Mean (SD) [1]: 35.6 (13.84)
- BACS Composite Score, Week 6, Median [1]: 38.0
- BACS Composite Score, Week 12, Mean (SD) [1]: 37.6 (13.86)
- BACS Composite Score, Week 12, Median [1]: 40.0
- BACS Motor Speed Cognition Domain, Change from Baseline to Week 6, Mean (SD) [1]: 0.5 (9.53)
- BACS Motor Speed Cognition Domain, Change from Baseline to Week 6, Median [1]: 2.0
- BACS Motor Speed Cognition Domain, Change from Baseline to Week 12, Mean (SD) [1]: 2.0 (6.58)
- BACS Motor Speed Cognition Domain, Change from Baseline to Week 12, Median [1]: 2.0
- BACS Motor Speed Cognition Domain, Week 6, Mean (SD) [1]: 40.7 (12.38)
- BACS Motor Speed Cognition Domain, Week 6, Median [1]: 41.0
- BACS Motor Speed Cognition Domain, Week 12, Mean (SD) [1]: 41.3 (11.31)
- BACS Motor Speed Cognition Domain, Week 12, Median [1]: 40.0
- BACS Verbal Memory Cognition Domain, Change from Baseline to Week 6, Mean (SD) [1]: 1.8 (8.65)
- BACS Verbal Memory Cognition Domain, Change from Baseline to Week 6, Median [1]: 2.0
- BACS Verbal Memory Cognition Domain, Change from Baseline to Week 12, Mean (SD) [1]: 1.6 (10.04)
- BACS Verbal Memory Cognition Domain, Change from Baseline to Week 12, Median [1]: 0.0
- BACS Verbal Memory Cognition Domain, Week 6, Mean (SD) [1]: 42.1 (12.06)
- BACS Verbal Memory Cognition Domain, Week 6, Median [1]: 42.0
- BACS Verbal Memory Cognition Domain, Week 12, Mean (SD) [1]: 41.8 (13.82)
- BACS Verbal Memory Cognition Domain, Week 12, Median [1]: 41.0
- BACS Working Memory Cognition Domain, Change from Baseline to Week 6, Mean (SD) [1]: 0.5 (7.99)
- BACS Working Memory Cognition Domain, Change from Baseline to Week 6, Median [1]: 0.0
- BACS Working Memory Cognition Domain, Change from Baseline to Week 12, Mean (SD) [1]: 1.7 (7.39)
- BACS Working Memory Cognition Domain, Change from Baseline to Week 12, Median [1]: 0.0
- BACS Working Memory Cognition Domain, Week 6, Mean (SD) [1]: 40.1 (13.75)
- BACS Working Memory Cognition Domain, Week 6, Median [1]: 43.0
- BACS Working Memory Cognition Domain, Week 12, Mean (SD) [1]: 42.6 (13.20)
- BACS Working Memory Cognition Domain, Week 12, Median [1]: 45.0
- BACS Attention Cognition Domain, Change from Baseline to Week 6, Mean (SD) (500 mg, Week 6): 0.9 (6.26)
- BACS Attention Cognition Domain, Change from Baseline to Week 6, Median (500 mg, Week 6): 0.0
- BACS Attention Cognition Domain, Week 6, Mean (SD) (500 mg, Week 6): 35.5 (12.68)
- BACS Attention Cognition Domain, Week 6, Median (500 mg, Week 6): 35.0
- BACS Executive Functions Cognition Domain, Change from Baseline to Week 6, Mean (SD) (500 mg, Week 6): 1.3 (7.62)
- BACS Executive Functions Cognition Domain, Change from Baseline to Week 6, Median (500 mg, Week 6): 0.0
- BACS Executive Functions Cognition Domain, Week 6, Mean (SD) (500 mg, Week 6): 47.0 (10.95)
- BACS Executive Functions Cognition Domain, Week 6, Median (500 mg, Week 6): 51.0
- BACS Verbal Fluency Cognition Domain, Change from Baseline to Week 6, Mean (SD) (500 mg, Week 6): 0.8 (5.87)
- BACS Verbal Fluency Cognition Domain, Change from Baseline to Week 6, Median (500 mg, Week 6): 1.0
- BACS Verbal Fluency Cognition Domain, Week 6, Mean (SD) (500 mg, Week 6): 39.6 (10.14)
- BACS Verbal Fluency Cognition Domain, Week 6, Median (500 mg, Week 6): 40.0
- BACS Attention Cognition Domain, Adjusted Change from Baseline to Week 6, LS Mean (SE) (500 mg, Week 6, MMRM): 1.0 (0.96)
- BACS Attention Cognition Domain, Difference from Placebo for Week 6, LS Mean (SE) (500 mg, Week 6, MMRM): 0.0 (1.15)
- BACS Executive Functions Cognition Domain, Adjusted Change from Baseline to Week 6, LS Mean (SE) (500 mg, Week 6, MMRM): 1.1 (1.29)
- BACS Executive Functions Cognition Domain, Difference from Placebo for Week 6, LS Mean (SE) (500 mg, Week 6, MMRM): 2.3 (1.57)
- BACS Verbal Fluency Cognition Domain, Adjusted Change from Baseline to Week 6, LS Mean (SE) (500 mg, Week 6, MMRM): 0.5 (0.74)
- BACS Verbal Fluency Cognition Domain, Difference from Placebo for Week 6, LS Mean (SE) (500 mg, Week 6, MMRM): 0.3 (0.89)
- BACS Attention Cognition Domain, Change from Baseline to Week 12, Mean (SD) (500 mg, Week 12): 3.1 (9.31)
- BACS Attention Cognition Domain, Change from Baseline to Week 12, Median (500 mg, Week 12): 2.0
- BACS Attention Cognition Domain, Week 12, Mean (SD) (500 mg, Week 12): 38.0 (14.08)
- BACS Attention Cognition Domain, Week 12, Median (500 mg, Week 12): 36.0
- BACS Executive Functions Cognition Domain, Change from Baseline to Week 12, Mean (SD) (500 mg, Week 12): 2.0 (9.28)
- BACS Executive Functions Cognition Domain, Change from Baseline to Week 12, Median (500 mg, Week 12): 0.0
- BACS Executive Functions Cognition Domain, Week 12, Mean (SD) (500 mg, Week 12): 48.5 (11.88)
- BACS Executive Functions Cognition Domain, Week 12, Median (500 mg, Week 12): 51.0
- BACS Verbal Fluency Cognition Domain, Change from Baseline to Week 12, Mean (SD) (500 mg, Week 12): 1.3 (6.95)
- BACS Verbal Fluency Cognition Domain, Change from Baseline to Week 12, Median (500 mg, Week 12): 0.0
- BACS Verbal Fluency Cognition Domain, Week 12, Mean (SD) (500 mg, Week 12): 40.6 (10.30)
- BACS Verbal Fluency Cognition Domain, Week 12, Median (500 mg, Week 12): 40.0
- BACS Attention Cognition Domain, Adjusted Change from Baseline to Week 12, LS Mean (SE) (500 mg, Week 12, MMRM): 3.1 (1.09)
- BACS Attention Cognition Domain, Difference from Placebo for Week 12, LS Mean (SE) (500 mg, Week 12, MMRM): 1.2 (1.33)
- BACS Executive Functions Cognition Domain, Adjusted Change from Baseline to Week 12, LS Mean (SE) (500 mg, Week 12, MMRM): 2.0 (1.19)
- BACS Executive Functions Cognition Domain, Difference from Placebo for Week 12, LS Mean (SE) (500 mg, Week 12, MMRM): 1.4 (1.42)
- BACS Verbal Fluency Cognition Domain, Adjusted Change from Baseline to Week 12, LS Mean (SE) (500 mg, Week 12, MMRM): 0.5 (0.91)
- BACS Verbal Fluency Cognition Domain, Difference from Placebo for Week 12, LS Mean (SE) (500 mg, Week 12, MMRM): −0.5 (1.11)
